Measurements taken from PMC5487684, “Safety, Pharmacokinetics, and Antiviral Activity of a Novel HIV Antiviral, ABX464, in Treatment-Naive HIV-Infected Subjects in a Phase 2 Randomized, Controlled Study” (Antimicrobial Agents and Chemotherapy, 2017).
Where two headings read alike, the source gives them in different places.

Experiment: Plasma pharmacokinetics of ABX464 and ABX464-NGlc in HIV-infected subjects
Assay type: in vivo, human
Details: for AUC(0-inf) / Cmax / half-life / Tmax: human, plasma, po
Method: Plasma samples were analyzed for ABX464 and ABX464-NGlc using validated bioanalytical methods by Atlanbio (Saint Nazaire, France) according to good laboratory practices. Pharmacokinetic parameters were calculated by noncompartmental analysis (NCA), using Phoenix WinNonlin software (Pharsight Corporation) running on a personal computer. On day 1, the following PK parameters were generated: Cmax, the time to Cmax (Tmax), lag time (tlag), elimination rate constant (kel), area under the concentration-time curve (AUC) from time zero to time t (AUC0–t), AUC from time zero to infinity (AUC0–∞), apparent clearance (CL/F), and apparent volume of distribution (V/F). On the other days of PK assessment, only Cmax, Tmax, tlag, kel, and AUC0–t were generated. The secondary analysis concerned pharmacodynamic (PD) activity, as expressed by CD4 and CD8 levels and viral load across time. The HIV viral load was analyzed in the prequalified individual local study center laboratories. CD4 and CD8 cell counts were also determined in the local study center laboratories. With respect to the viral load, changes in the log-transformed viral load values between 24 h postdose and predose were calculated on each day, and a comparison between each dose level and pooled placebo data was made. Moreover, the rate of success (defined as a decrease in the viral load value of at least 0.5 log) was evaluated for each treatment (including placebo) and compared between treatments.

With FC(F)(F)Oc1ccc(Nc2ccc3cccc(Cl)c3n2)cc1 [ABX464] the “Concomitant food effect on relative bioavailability” value (fed vs fasted) was “substantial increase in the relative bioavailability”, the AUC(0-inf) (50 mg, HIV-infected, single oral 50mg (fasted), N 7, read-out: AUC0-∞, GM) was 42.8 ng·h/mL and the AUC(0-inf) (50 mg, HIV-infected, single oral 50mg (fasted), N 7, read-out: AUC0-∞, Mean) was 55.4 ng·h/mL. The Cmax (50 mg, HIV-infected, single oral 50mg (fasted), N 7, read-out: Cmax, GM) was 14.9 ng/mL, the Cmax (50 mg, HIV-infected, single oral 50mg (fasted), N 7, read-out: Cmax, Mean) was 19.4 ng/mL and the half-life (50 mg, HIV-infected, single oral 50mg (fasted), N 7, read-out: t1/2, GM (converted)) was 0.94 h. The half-life (50 mg, HIV-infected, single oral 50mg (fasted), N 7, read-out: t1/2, Mean (converted)) was 0.96 h, the Tmax (50 mg, HIV-infected, single oral 50mg (fasted), N 7, read-out: tmax, GM) was 1.8 h and the Tmax (50 mg, HIV-infected, single oral 50mg (fasted), N 7, read-out: tmax, Mean) was 1.9 h. The half-life (HIV-infected subjects, oral, read-out: half-life (t1/2) (converted)) was ~1 h.
